Measured values: ChEMBL document CHEMBL1201862, “PubChem BioAssay data set” (2004)
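Briefly, cells in 96-well plates were exposed to five compound concentrations for 48 h, and endpoints were estimated by linear interpolation. At the GI50, growth is halved.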 Calls of active or inactive are those of the source. Cut-off read from the data, not from the text of the source: active = GI50 up to about 1.1 µM and inactive = higher.

What was measured:
Test in all cases: inhibition of tumour cell growth, NCI panel, 48 h
[1] = system: ACHN
[2] = system: HT-29
[3] = system: CCRF-CEM
[4] = system: HOP-62
[5] = system: RXF 393
[6] = system: Hs-578T
[7] = system: COLO 205
[8] = system: UACC-62
[9] = system: SF-268
[10] = system: UO-31
[11] = system: NCI-H522
[12] = system: U-251
[13] = system: HL-60
[14] = system: NCI-H226
[15] = system: SW-620
[16] = system: OVCAR-3
[17] = system: UACC-257
[18] = system: HCT-116
[19] = system: MDA-N
[20] = system: T47D

| SMILES | GI50 [1] | GI50 [2] | GI50 [3] | GI50 [4] | GI50 [5] | GI50 [6] | GI50 [7] | GI50 [8] | GI50 [9] | GI50 [10] | GI50 [11] | GI50 [12] | GI50 [13] | GI50 [14] | GI50 [15] | GI50 [16] | GI50 [17] | GI50 [18] | GI50 [19] | GI50 [20] |
| --- | --- | --- | --- | --- | --- | --- | --- | --- | --- | --- | --- | --- | --- | --- | --- | --- | --- | --- | --- | --- |
| O=c1cc(-c2ccccc2F)[nH]c2cc3c(cc12)OCO3 | 0.149 µM (active) | 0.0942 µM (active) | 0.129 µM (active) | 0.19 µM (active) | 0.0813 µM (active) | 0.0728 µM (active) | 0.0512 µM (active) | 0.042 µM (active) | 0.504 µM (active) | 0.711 µM (active) | 0.0402 µM (active) | 0.0995 µM (active) | 0.0454 µM (active) | 0.184 µM (active) | 0.0356 µM (active) | 0.0341 µM (active) | 1.2 µM (inactive) | 0.0489 µM (active) | < 0.01 µM (active) | > 100 µM (inactive) |
| O=c1[nH]/c(=C/c2ccc(OCc3ccccc3)cn2)c(=O)[nH]/c1=C/c1cccnc1 | 0.728 µM (active) | 0.759 µM (active) | 0.537 µM (active) | 0.497 µM (active) | 0.574 µM (active) | 0.526 µM (active) | 2.07 µM (inactive) | 0.192 µM (active) | 0.542 µM (active) |  | 0.182 µM (active) | 0.581 µM (active) | 0.117 µM (active) | 0.904 µM (active) | 0.42 µM (active) | 0.23 µM (active) |  | 0.342 µM (active) | 0.106 µM (active) | 0.458 µM (active) |
| O=C(NCCCN1CCN(CCCNC(=O)c2cc(-c3ccccc3)nc3ccccc23)CC1)c1cc(-c2ccccc2)nc2ccccc12 | 15.4 µM (inactive) | 3.63 µM (inactive) | 11.6 µM (inactive) | 16.1 µM (inactive) | > 30.9 µM (inactive) | 13.2 µM (inactive) | 8.77 µM (inactive) | 15.9 µM (inactive) | > 38.5 µM (inactive) | 9.18 µM (inactive) | 14 µM (inactive) | 12.5 µM (inactive) | > 32.7 µM (inactive) | 27.7 µM (inactive) | 9.71 µM (inactive) | 27.7 µM (inactive) | 2.29 µM (inactive) | 23.4 µM (inactive) | 5.64 µM (inactive) | 8.99 µM (inactive) |
| C/C(=N\NC(=O)c1ccc(Cl)cc1)c1nc2cccnc2[nH]1 | 15.7 µM (inactive) | 45.9 µM (inactive) | 10.4 µM (inactive) | 32.7 µM (inactive) | 18.1 µM (inactive) | 27.3 µM (inactive) | 30.5 µM (inactive) | 20.7 µM (inactive) | 17.1 µM (inactive) | 26.7 µM (inactive) | 18.7 µM (inactive) | 8.93 µM (inactive) | 32.7 µM (inactive) |  | 28.9 µM (inactive) | 22.9 µM (inactive) | 20 µM (inactive) | 32.6 µM (inactive) | 30.5 µM (inactive) | 22.8 µM (inactive) |
| CCCCCCc1cc2cc(-c3csc(CC#N)n3)c(=O)oc2cc1O | 21.9 µM (inactive) | > 100 µM (inactive) | > 49.2 µM (inactive) | 34.9 µM (inactive) | > 33.2 µM (inactive) | 12.4 µM (inactive) | > 100 µM (inactive) | 14.4 µM (inactive) | 18.7 µM (inactive) | 27 µM (inactive) | 10.4 µM (inactive) | 6.4 µM (inactive) | > 44.3 µM (inactive) | 22.9 µM (inactive) | 26.2 µM (inactive) | 11.1 µM (inactive) | > 100 µM (inactive) | 5.89 µM (inactive) | > 100 µM (inactive) | > 100 µM (inactive) |
| C=C[C@]1(O)CCC[C@]2(C)C(=O)CCC12C (stereo partly drawn) | > 100 µM (inactive) | > 100 µM (inactive) |  | > 100 µM (inactive) | > 100 µM (inactive) | > 100 µM (inactive) | > 100 µM (inactive) | > 100 µM (inactive) | > 100 µM (inactive) | > 100 µM (inactive) | > 100 µM (inactive) | > 100 µM (inactive) | > 100 µM (inactive) | > 100 µM (inactive) | > 100 µM (inactive) | > 100 µM (inactive) | > 100 µM (inactive) | > 100 µM (inactive) | > 100 µM (inactive) | > 100 µM (inactive) |
| O=C1NC(NCc2ccc(F)cc2)=N/C1=C\c1ccccc1Cl | 20.7 µM (inactive) | 15 µM (inactive) |  | 19.1 µM (inactive) | 19.6 µM (inactive) | 30.5 µM (inactive) | 17.4 µM (inactive) | 15.7 µM (inactive) | 24.2 µM (inactive) |  | 13.8 µM (inactive) | 14.7 µM (inactive) | 13.4 µM (inactive) | 18.1 µM (inactive) | 13.5 µM (inactive) | 16.5 µM (inactive) | 24.9 µM (inactive) | 14.5 µM (inactive) | 16.8 µM (inactive) | 5.41 µM (inactive) |
| O=C(NC(C(F)(F)F)(C(F)(F)F)P(=O)(c1ccccc1)c1ccccc1)C(C(F)(F)F)C(F)(F)F | 16.7 µM (inactive) | 14.5 µM (inactive) | 41.8 µM (inactive) | > 100 µM (inactive) | 20.2 µM (inactive) | 54 µM (inactive) | 20.2 µM (inactive) | 56 µM (inactive) | 28.9 µM (inactive) |  | 25.9 µM (inactive) | 36.6 µM (inactive) | 26.5 µM (inactive) | 68.9 µM (inactive) | 40.6 µM (inactive) | 25.8 µM (inactive) | 29.4 µM (inactive) | 18.5 µM (inactive) | 20.4 µM (inactive) | > 100 µM (inactive) |
| OC1CCCN(C2(c3cccs3)CCCCC2)C1 (stereo not drawn) | > 100 µM (inactive) | > 100 µM (inactive) |  | > 100 µM (inactive) | > 100 µM (inactive) | > 100 µM (inactive) | > 100 µM (inactive) | > 100 µM (inactive) | > 100 µM (inactive) |  | > 100 µM (inactive) | > 100 µM (inactive) | 74.6 µM (inactive) |  | > 100 µM (inactive) | > 100 µM (inactive) | > 100 µM (inactive) | > 100 µM (inactive) | > 100 µM (inactive) | > 100 µM (inactive) |
| OC(C1CCCC1=N/N=C1/CCCC1C(O)(C(F)(F)Cl)C(F)(F)Cl)(C(F)(F)Cl)C(F)(F)Cl (stereo not drawn) | > 10 µM (inactive) | > 10 µM (inactive) | > 10 µM (inactive) | > 10 µM (inactive) | > 10 µM (inactive) | > 10 µM (inactive) | > 10 µM (inactive) | > 10 µM (inactive) | > 10 µM (inactive) |  | > 10 µM (inactive) | > 10 µM (inactive) | > 10 µM (inactive) | > 10 µM (inactive) | > 10 µM (inactive) | > 10 µM (inactive) | > 10 µM (inactive) | > 10 µM (inactive) | > 10 µM (inactive) | > 10 µM (inactive) |
| CCC(C#N)NCc1ccc(CNC(C#N)CC)cc1 (stereo not drawn) | > 100 µM (inactive) | > 100 µM (inactive) | > 100 µM (inactive) |  | > 100 µM (inactive) | > 100 µM (inactive) | > 100 µM (inactive) | 86.5 µM (inactive) | > 100 µM (inactive) | 95.7 µM (inactive) | > 100 µM (inactive) | > 100 µM (inactive) | > 100 µM (inactive) | > 100 µM (inactive) | > 100 µM (inactive) | > 100 µM (inactive) | > 100 µM (inactive) | > 100 µM (inactive) | > 100 µM (inactive) | > 100 µM (inactive) |
| CCOC(=O)CCC(NC(=O)OCc1ccccc1)C(=O)NNC(=O)OC(C)(C)C (stereo not drawn) | > 100 µM (inactive) | > 100 µM (inactive) | > 100 µM (inactive) | > 100 µM (inactive) | > 100 µM (inactive) | > 100 µM (inactive) | > 100 µM (inactive) | > 100 µM (inactive) | > 100 µM (inactive) | > 100 µM (inactive) | > 100 µM (inactive) | > 100 µM (inactive) | > 100 µM (inactive) |  | > 100 µM (inactive) | > 100 µM (inactive) | > 100 µM (inactive) | > 100 µM (inactive) | > 100 µM (inactive) | > 100 µM (inactive) |
| C=C1C(=O)OC2C1CC(O)/C(C)=C\CCC1(C)OC21 (stereo not drawn) | 39.5 µM (inactive) | 27.5 µM (inactive) | 25.4 µM (inactive) | 20 µM (inactive) | 16.8 µM (inactive) | 23.5 µM (inactive) | 29.8 µM (inactive) | 21.2 µM (inactive) | 25.1 µM (inactive) | 22.9 µM (inactive) | 14.8 µM (inactive) | 20.3 µM (inactive) | 23.7 µM (inactive) |  | 38.8 µM (inactive) | 17.4 µM (inactive) | 34 µM (inactive) | 29.8 µM (inactive) | 19.1 µM (inactive) | 46.1 µM (inactive) |
| COc1cc(C(=O)Nc2nnc(S(N)(=O)=O)s2)cc(OC)c1OC | > 100 µM (inactive) |  |  | > 100 µM (inactive) | > 100 µM (inactive) | > 100 µM (inactive) | > 100 µM (inactive) | > 100 µM (inactive) | > 100 µM (inactive) | > 100 µM (inactive) | > 100 µM (inactive) | > 100 µM (inactive) | > 100 µM (inactive) | > 100 µM (inactive) | > 100 µM (inactive) | > 100 µM (inactive) | > 100 µM (inactive) | > 100 µM (inactive) | > 100 µM (inactive) | > 100 µM (inactive) |
| O=C(O)CN1CCNCCN(CP(=O)(O)O)CC1 | > 100 µM (inactive) | 2.02 µM (inactive) | 4.94 µM (inactive) | > 100 µM (inactive) | 6.89 µM (inactive) | > 30.1 µM (inactive) | 2.84 µM (inactive) | 8.69 µM (inactive) | 22.3 µM (inactive) | 53.2 µM (inactive) | 2.58 µM (inactive) | > 24.3 µM (inactive) | 3.22 µM (inactive) | > 39.1 µM (inactive) | 4.49 µM (inactive) |  | > 33.8 µM (inactive) | 3.87 µM (inactive) | 5.35 µM (inactive) | > 100 µM (inactive) |
